The values that follow come from US12098139B2, “Chemokine receptor modulators and uses thereof” (RAPT Therapeutics, Inc., priority 2018, dated 2024).

Where only a bound is given, the exact number is not on record here.

For one assay, the target named is T1, hCCR4 (Chem5-hCCR4 cells) (Homo sapiens, UniProt P51679).
T1 sequence (P51679 1-360): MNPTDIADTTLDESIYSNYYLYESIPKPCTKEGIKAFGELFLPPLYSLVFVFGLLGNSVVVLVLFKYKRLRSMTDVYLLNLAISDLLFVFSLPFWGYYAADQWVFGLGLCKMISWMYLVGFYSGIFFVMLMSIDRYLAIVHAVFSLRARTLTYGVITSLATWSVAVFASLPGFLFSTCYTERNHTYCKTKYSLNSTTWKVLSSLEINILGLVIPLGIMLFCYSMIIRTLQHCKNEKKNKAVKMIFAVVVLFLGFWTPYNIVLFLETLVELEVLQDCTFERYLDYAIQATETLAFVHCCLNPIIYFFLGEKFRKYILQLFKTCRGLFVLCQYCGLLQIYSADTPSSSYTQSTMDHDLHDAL
Nature of the assay: Calcium flux assay (CCL22-stimulated, FLIPR Calcium 6 dye). Type of assay: cell-based. Particulars: Table 3, CCL22 1.5 nM, read-out: Potency (IC50). On the procedure:
Calcium Flux Assay. Compounds were evaluated in a calcium flux assay substantially performed as follows. Chem5-hCCR4 cells (EMD Millipore, Hayward, CA; HTS009C) were cultured under standard conditions and frozen in aliquots of 10×10^6 cells/mL. The day prior to compound testing, a vial was rapidly thawed and pipetted into 20 mL media (DMEM+10% FBS+1% Pen-Strep+1% L-glutamine). Cells were harvested by centrifugation and re-suspended in fresh culture medium. 25 μL of cell suspension was seeded into 384-well plates (Corning, Tewksbury, MA; CellBind with black wall/clear bottom). The plates were centrifuged at 300 g for 10 seconds and incubated overnight at 37° C. and 5% CO2. The day of compound testing, media was removed from the plates and 25 μL serum free media was added to each well. Plates were returned to the incubator for 2 h. 25 μL assay buffer (Hank's balanced salt solution+20 mM HEPES pH 7.4) containing FLIPR Calcium 6 dye (Molecular Devices, Sunnyvale, CA; #R8191) and probenecid (2.5 mM) was added to each well and incubated at 37° C. and 5% CO2 for 2 h. Compounds in DMSO were added to the plates using an HP D300e digital dispenser, and all wells were normalized to contain 0.25 μL (0.5%) DMSO. Plates were incubated for 1 hour at 37° C. and 5% CO2. CCL22 (Peprotech; Rockyhill, NJ) was diluted in assay buffer containing 0.1% BSA to 7.5 nM (corresponding to 5×EC80 of 1.5 nM).
Assay plates and working solution of CCL22 were transferred to the FlexStation plate reader (Molecular Devices) at 37° C. for 5 min of equilibration. Fluorescence recordings at 485 excitation/525 emission were performed at 2.5 second intervals. At t=16 seconds, 12.5 μL of CCL22 solution was added to each well and reads continued for 30 seconds at 2.5 second intervals. The minimum fluorescence (Fmin) was calculated by averaging the reads prior to ligand addition and the change in fluorescence (ΔF) was calculated by subtracting the Fmin from the average of the reads following ligand addition. The response ΔF/Fmin was plotted as a function of the compound concentration and the IC50 values were determined by non-linear regression analysis using a 4-parameter fit in either PRISM software (GraphPad; La Jolla, CA) or Dotmatics Browser.
(In general: Calcium flux is commonly read through the fluorescence of an indicator in the cells.)
In the case of `C[C@@H](Nc1nc(N2CC([C@H]3CCCN([C@H]4C[C@](C)(C(=O)O)C4)C3)C2)ncc1C1CC1)c1ccc(Cl)cc1Cl` [Example 41, (1R,3r)-3-((R)-3-(1-(5-cyclopropyl-4-(((R)-1-(2,4-dichlorophenyl)ethyl)amino)pyrimidin-2-yl)azetidin-3-yl)piperidin-1-yl)-1-methylcyclobutane-1-carboxylic acid], the 50% inhibitory concentration (IC50) (in general, the point on the concentration scale where inhibition reaches its midpoint) was less than 100 nM. `C[C@@H](Nc1nc(N2CC([C@H]3CCCN([C@H]4C[C@@](C)(C(=O)O)C4)C3)C2)nc2ccccc12)c1ccc(Cl)cc1Cl` [Example 27, (1S,3s)-3-((R)-3-(1-(4-(((R)-1-(2,4-dichlorophenyl)ethyl)amino)quinazolin-2-yl)azetidin-3-yl)piperidin-1-yl)-1-methylcyclobutane-1-carboxylic acid]: the IC50 was less than 100 nM. For the molecule `C[C@@H](Nc1nc(N2CC([C@H]3CCCN(CCO)C3)C2)ncc1Br)c1ccc(F)cc1Cl` [Example 43, 2-((R)-3-(1-(5-bromo-4-(((R)-1-(2-chloro-4-fluorophenyl)ethyl)amino)pyrimidin-2-yl)azetidin-3-yl)piperidin-1-yl)ethan-1-ol], the IC50 was less than 100 nM. For the molecule `C[C@@H](Nc1nc(N2CC(C3CCCN(CCN4CCCC4=O)C3C(=O)O)C2)ncc1Cl)c1ccc(Cl)cc1Cl` (stereo partly drawn) [Example 34, 3-(1-(5-chloro-4-(((R)-1-(2,4-dichlorophenyl)ethyl)amino)pyrimidin-2-yl)azetidin-3-yl)-1-(2-(2-oxopyrrolidin-1-yl)ethyl)piperidine-2-carboxylic acid], the IC50 lay in the range of 100 to 500 nM.

For `Cc1cnc(N2CC([C@H]3CCCN([C@H]4C[C@](C)(C(=O)O)C4)C3)C2)nc1N[C@H](C)c1ccc(Cl)cc1Cl` [Example 36, (1R,3r)-3-((R)-3-(1-(4-(((R)-1-(2,4-dichlorophenyl)ethyl)amino)-5-methylpyrimidin-2-yl)azetidin-3-yl)piperidin-1-yl)-1-methylcyclobutane-1-carboxylic acid], the concentration for half-maximal inhibition (IC50) was 100 to 500 nM.

Staying with this assay, now noted: Table 5, CCL22 1.5 nM, read-out: Potency (IC50).
Consider `C[C@@H](Nc1nc(N2CC([C@H]3CCCN([C@H]4C[C@](C)(C(=O)O)C4)C3)C2)ncc1C(O)C1CC1)c1ccc(Cl)cc1Cl` (stereo partly drawn) [Example 70, 3-[(3R)-3-[1-[5-[cyclopropyl(hydroxy)methyl]-4-[[(1R)-1-(2,4-dichlorophenyl)ethyl]amino]pyrimidin-2-yl]azetidin-3-yl]-1-piperidyl]-1-methyl-cyclobutanecarboxylic acid; 2,2,2-trifluoroacetic acid], for which the IC50 was less than 100 nM. Regarding `Cc1nc(N2CC([C@H]3CCCN(C4CC(C)(C(=O)O)C4)C3)C2)nc(N[C@H](C)c2ccc(Cl)cc2Cl)c1F` (single isomer, unassigned) [Example 91, trifluoroacetic acid], the IC50 is less than 100 nM. On the same count and under the same terms, with `C[C@@H](Nc1nc(N2CC([C@H]3CCCN(C4CC(C)(C(=O)O)C4)C3)C2)nc2[nH]ccc12)c1ccc(Cl)cc1Cl` (single isomer, unassigned) [Example 75, trifluoroacetic acid] the figure was less than 100 nM; with `CC(=O)c1cnc(N2CC([C@H]3CCCN(C4CC(C)(C(=O)O)C4)C3)C2)nc1N[C@H](C)c1ccc(Cl)cc1Cl` (single isomer, unassigned) [Example 78], less than 100 nM; with `C[C@@H](Nc1nc(N2CC([C@H]3CCCN(C4CC(C)(C(=O)O)C4)C3)C2)nc2cc[nH]c12)c1ccc(Cl)cc1Cl` (single isomer, unassigned) [Example 72, trifluoroacetic acid], less than 100 nM. Turning to `COC(C)c1cnc(N2CC([C@H]3CCCN([C@H]4C[C@](C)(C(=O)O)C4)C3)C2)nc1N[C@H](C)c1ccc(Cl)cc1Cl` (stereo partly drawn) [Example 79, 3-[(3R)-3-[1-[4-[[(1R)-1-(2,4-dichlorophenyl)ethyl]amino]-5-(1-methoxyethyl)pyrimidin-2-yl]azetidin-3-yl]-1-piperidyl]-1-methyl-cyclobutanecarboxylic acid; 2,2,2-trifluoroacetic acid], the IC50 is less than 100 nM.
